Data: US10206907B2, “Compounds useful for the treatment of degenerative and inflammatory diseases” (GALAPAGOS NV, priority 2008, dated 2019)
pIC50: −log10 of the molar value.

Target: Recombinant human JAK1 catalytic domain (Homo sapiens (Human), UniProt P23458)
Experiment: JAK1 inhibition assay
Format: biochemical
Conditions: semi-quantitative score
Protocol: Plates were washed 6 times with 300 μL per well of a 75 mM phosphoric acid solution and the bottom of the plates was sealed. 40 μL/well of Microscint-20 was added, the top of the plates was sealed and readout was performed using the Topcount (Perkin Elmer). Kinase activity was calculated by subtracting counts per minute (cpm) obtained in the presence of a positive control inhibitor (10 μM staurosporine) from cpm obtained in the presence of vehicle. The ability of a test compound to inhibit this activity was determined as: Percentage inhibition=((cpm determined for sample with test compound present−cpm determined for sample with positive control inhibitor) divided by (cpm determined in the presence of vehicle−cpm determined for sample with positive control inhibitor))*100%.
Dose dilution series were prepared for the compounds enabling the testing of dose-response effects in the JAK1 assay and the calculation of the IC50 for each compound.

Recombinant human JAK1 catalytic domain, sequence (P23458 850-1154): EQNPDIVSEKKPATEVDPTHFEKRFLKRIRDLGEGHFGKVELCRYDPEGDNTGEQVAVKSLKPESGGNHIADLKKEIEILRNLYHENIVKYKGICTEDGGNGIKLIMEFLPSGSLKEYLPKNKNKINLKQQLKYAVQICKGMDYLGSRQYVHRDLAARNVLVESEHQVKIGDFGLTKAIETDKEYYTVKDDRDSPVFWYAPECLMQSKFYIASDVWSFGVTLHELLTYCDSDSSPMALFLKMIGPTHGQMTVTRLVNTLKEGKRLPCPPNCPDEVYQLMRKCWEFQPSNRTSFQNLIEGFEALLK

Compound | pIC50
O=C(Nc1nc2cccc(-c3ccc(C(=O)N4CCC(N5CCOCC5)CC4)cc3)n2n1)C1CC1 [Compound 101, N-(5-(4-(4-morpholinopiperidine-1-carbonyl)phenyl)-[1,2,4]triazolo[1,5-a]pyridin-2-yl)cyclopropanecarboxamide] | 6.30 to 7.00
O=C(Nc1ccc(-c2cccc3nc(NC(=O)C4CC4)nn23)cn1)c1ccccc1 [Compound 44, N-(5-(2-(cyclopropanecarboxamido)-[1,2,4]triazolo[1,5-a]pyridin-5-yl)pyridin-2-yl)benzamide] | 6.00 to 6.30
Cc1nccn1CCC1CCN(C(=N)c2ccc(-c3cccc4nc(NC(=O)C5CC5)nn34)cc2)CC1 [Compound 154, N-(5-(4-(imino(4-(2-(2-methyl-1H-imidazol-1-yl)ethyl)piperidin-1-yl)methyl)phenyl)-[1,2,4]triazolo[1,5-a]pyridin-2-yI)cyclopropanecarboxamide] | 6.30 to 7.00
O=C(Nc1nc2cccc(-c3cnc(N4CCOCC4)nc3)n2n1)C1CC1 [Compound 8, N-(5-(2-morpholinopyrimidin-5-yl)-[1,2,4]triazolo[1,5-a]pyridin-2-yl)cyclopropanecarboxamide] | < 6.00
O=C(Nc1nc2cccc(-c3ccc(-c4ccccc4)nc3)n2n1)C1CC1 [Compound 47, N-(5-(6-phenylpyridin-3-yl)-[1,2,4]triazolo[1,5-a]pyridin-2-yl)cyclopropanecarboxamide] | 6.30 to 7.00
O=C(Nc1nc2cccc(-c3ccc(NCc4ccccn4)nc3)n2n1)C1CC1 [Compound 171, N-(5-(6-(pyridin-2-ylmethylamino)pyridin-3-yl)-[1,2,4]triazolo[1,5-a]pyridin-2-yl)cyclopropanecarboxamide] | 6.30 to 7.00
CN1CCN(c2ccc(-c3cccc4nc(NC(=O)C5CC5)nn34)cn2)CC1 [Compound 5, N-(5-(6-(4-methylpiperazin-1-yl)pyridin-3-yl)-[1,2,4]triazolo[1,5-a]pyridin-2-yl)cyclopropanecarboxamide] | < 6.00
O=C(Nc1nc2cccc(-c3ccc(NCCc4cccnc4)nc3)n2n1)C1CC1 [Compound 172, N-(5-(6-(2-(pyridin-3-yl)ethylamino)pyridin-3-yl)-[1,2,4]triazolo[1,5-a]pyridin-2-yl)cyclopropanecarboxamide] | 6.00 to 6.30
O=C(Nc1nc2cccc(-c3ccc(NCCC4CCOCC4)nc3)n2n1)C1CC1 [Compound 93, N-(5-(6-(2-(tetrahydro-2H-pyran-4-yl)ethylamino)pyridin-3-yl)-[1,2,4]triazolo[1,5-a]pyridin-2-yl)cyclopropanecarboxamide] | 6.30 to 7.00
O=C(NCCCN1CCOCC1)c1ccc(-c2cccc3nc(NC(=O)C4CC4)nn23)cc1 [Compound 81, 4-(2-(cyclopropanecarboxamido)-[1,2,4]triazolo[1,5-a]pyridin-5-yl)-N-(3-morpholinopropyl)benzamide] | 6.30 to 7.00
O=C(Nc1nc2cccc(-c3ccc(OCc4nnn[nH]4)cc3)n2n1)C1CC1 [Compound 158] | 6.30 to 7.00
O=C(Nc1nc2cccc(-c3ccc(-c4cn[nH]c4)cc3)n2n1)C1CC1 [Compound 67, N-(5-(4-(1H-pyrazol-4-yl)phenyl)-[1,2,4]triazolo[1,5-a]pyridin-2-yl)cyclopropanecarboxamide] | 6.30 to 7.00
O=C(Nc1nc2cccc(-c3ccc(OCCc4cccnc4)cc3)n2n1)C1CC1 [Compound 127, N-(5-(4-(2-(pyridin-3-yl)ethoxy)phenyl)-[1,2,4]triazolo[1,5-a]pyridin-2-yl)cyclopropanecarboxamide] | 6.30 to 7.00
O=C(Nc1nc2cccc(-c3ccc(-c4cccnc4)nc3)n2n1)C1CC1 [Compound 68, N-(5-(2,3′-bipyridin-5-yl)-[1,2,4]triazolo[1,5-a]pyridin-2-yl)cyclopropanecarboxamide] | 6.30 to 7.00
O=C(Nc1nc2cccc(-c3cccc(CN4CCOCC4)c3)n2n1)C1CC1 [Compound 2, N-(5-(3-(morpholinomethyl)phenyl)-[1,2,4]triazolo[1,5-a]pyridin-2-yl)cyclopropanecarboxamide] | 6.30 to 7.00
O=C(Nc1nc2cccc(-c3ccc(NS(=O)(=O)c4ccccc4)nc3)n2n1)C1CC1 [Compound 180, N-(5-(6-(phenylsulfonamido)pyridin-3-yl)-[1,2,4]triazolo[1,5-a]pyridin-2-yl)cyclopropanecarboxamide] | 6.30 to 7.00
O=C(Nc1nc2cccc(-c3ccc(NCc4cccnc4)nc3)n2n1)C1CC1 [Compound 170, N-(5-(6-(pyridin-3-ylmethylamino)pyridin-3-yl)-[1,2,4]triazolo[1,5-a]pyridin-2-yl)cyclopropanecarboxamide] | 6.00 to 6.30
O=C(Nc1nc2cccc(-c3cnn(Cc4cccnc4)c3)n2n1)C1CC1 [Compound 185, Cyclopropanecarboxylic Acid [5-(1-pyridin-3-ylmethyl-1H-pyrazol-4-yl)-[1,2,4]triazolo[1,5-a]pyridin-2-yl]-amide] | > 7.00
O=C(Nc1nc2cccc(-c3ccc(N4CCOCC4)cc3)n2n1)C1CC1 [Compound 129, N-(5-(4-morpholinophenyl)-[1,2,4]triazolo[1,5-a]pyridin-2-yl)cyclopropanecarboxamide] | < 6.00
O=C(Nc1nc2cccc(-c3ccnc(N4CCC(CCc5ccccc5)CC4)c3)n2n1)C1CC1 [Compound 112, N-(5-(2-(4-phenethylpiperidin-1-yl)pyridin-4-yl)-[1,2,4]triazolo[1,5-a]pyridin-2-yl)cyclopropanecarboxamide] | < 6.00
O=C(Nc1nc2cccc(-c3ccc(S(=O)(=O)Cc4ccccn4)cc3)n2n1)C1CC1 [Compound 194, N-(5-(4-(pyridin-2-ylmethylsulfonyl)phenyl)-[1,2,4]triazolo[1,5-a]pyridin-2-yl)cyclopropanecarboxamide] | 6.30 to 7.00
O=C(Nc1nc2cccc(-c3ccc(OCC(=O)N4CCCCC4)cc3)n2n1)C1CC1 [Compound 117, N-(5-(4-(2-oxo-2-(piperidin-1-yl)ethoxy)phenyl)-[1,2,4]triazolo[1,5-a]pyridin-2-yl)cyclopropanecarboxamide] | < 6.00
Cc1nc(COc2ccc(-c3cccc4nc(NC(=O)C5CC5)nn34)cc2)c(C)o1 [Compound 63, N-(5-(4-((2,5-dimethyloxazol-4-yl)methoxy)phenyl)-[1,2,4]triazolo[1,5-a]pyridin-2-yl)cyclopropanecarboxamide] | 6.30 to 7.00

Second part, the compound after the results:

pIC50 | Compound
6.30 to 7.00 | CN1CCN(Cc2ccc(COc3ccc(-c4cccc5nc(NC(=O)C6CC6)nn45)cc3)cc2)CC1 [Compound 126, N-(5-(4-(4-((4-methylpiperazin-1-yl)methyl)benzyloxy)phenyl)-[1,2,4]triazolo[1,5-a]pyridin-2-yl)cyclopropanecarboxamide]
> 7.00 | O=C(Nc1nc2cccc(-c3ccc(C(=O)N4CCC(c5ccc(Cl)cc5)CC4)cc3)n2n1)C1CC1 [Compound 86]
6.30 to 7.00 | NC(=O)C1CCN(Cc2ccc(-c3cccc4nc(NC(=O)C5CC5)nn34)cc2)CC1 [Compound 140]
6.30 to 7.00 | O=C(NCCN1CCCC1)c1ccc(-c2cccc3nc(NC(=O)C4CC4)nn23)cc1 [Compound 80, 4-(2-(cyclopropanecarboxamido)-[1,2,4]lriazoIo[1,5-a]pyridin-5-yl)-N-(2-(pyrrolidin-l-yl)ethyl)benzamide]
6.30 to 7.00 | CCCN(CC1CCCO1)C(=O)c1ccc(-c2cccc3nc(NC(=O)C4CC4)nn23)cc1 (stereo not drawn) [Compound 136, 4-(2-(cyclopropanecarboxamido)-[1,2,4]triazolo[1,5-a]pyridin-5-yl)-N-propyl-N-((tetrahydrofuran-2-yl)methyl)benzamide]
6.30 to 7.00 | CC(C)N(Cc1ccc(N2CCCCC2)cc1)C(=O)c1ccc(-c2cccc3nc(NC(=O)C4CC4)nn23)cc1 [Compound 135, 4-(2-(cyclopropanecarboxamido)-[1,2,4]triazolo[1,5-a]pyridin-5-yl)-N-isopropyl-N-(4-(piperidin-1-yl)benzyl)benzamide]
6.30 to 7.00 | O=C(Nc1nc2cccc(-c3ccc(C(=O)N4CCC(CCc5ccccc5)CC4)cc3)n2n1)C1CC1 [Compound 147]
6.30 to 7.00 | O=C(Nc1nc2cccc(-c3ccc(C(=O)N4CCC(Oc5cccnc5)CC4)cc3)n2n1)C1CC1 [Compound 110, N-(5-(4-(4-(pyridin-3-yloxy)piperidine-1-carbonyl)phenyl)-[1,2,4]triazolo[1,5-a]pyridin-2-yl)cyclopropanecarboxamide]
6.30 to 7.00 | O=C(Nc1ccc(-c2cccc3nc(NC(=O)C4CC4)nn23)cc1)c1ccccc1F [Compound 34, N-(4-(2-(cyclopropanecarboxamido)-[1,2,4]triazolo[1,5-a]pyridin-5-yl)phenyl)-2-fluorobenzamide]
6.30 to 7.00 | O=C(Nc1nc2cccc(-c3ccc(C(=O)N(Cc4ccc(F)cc4)CC4CCCO4)cc3)n2n1)C1CC1 (stereo not drawn) [Compound 153, 4-(2-(cyclopropanecarboxamido)-[1,2,4]triazolo[1,5-a]pyridin-5-yl)-N-(4-fluorobenzyl)-N-((tetrahydrofuran-2-yl)methyl)benzamide]
6.30 to 7.00 | Cc1ccccc1OCC1CCN(C(=O)c2ccc(-c3cccc4nc(NC(=O)C5CC5)nn34)cc2)CC1 [Compound 133]
< 6.00 | CN(Cc1ccccc1)C1CCN(C(=O)c2ccc(-c3cccc4nc(NC(=O)C5CC5)nn34)cc2)CC1 [Compound 103, N-(5-(4-(4-(benzyl(methyl)amino)piperidine-1-carbonyl)phenyl)-[1,2,4]triazolo[1,5-a]pyridin-2-yl)cyclopropanecarboxamide]
6.30 to 7.00 | COc1ccc(CCN(C)C(=O)c2ccc(-c3cccc4nc(NC(=O)C5CC5)nn34)cc2)cc1OC [Compound 105, 4-(2-(cyclopropanecarboxamido)-[1,2,4]triazolo[1,5-a]pyridin-5-yl)-N-(3,4-dimethoxyphenethyl)-N-methylbenzamide]
